Test results reported in US20250171437A1 (Agios Pharmaceuticals,Inc., priority 2022, published 2025).

Molecular target: T1, human PAH with the R408W mutation (A375 R408W cells) (Homo sapiens, UniProt P00439, R408W)
T1 construct: expressed in transfected cells
T1 sequence (P00439 1-452 R408W): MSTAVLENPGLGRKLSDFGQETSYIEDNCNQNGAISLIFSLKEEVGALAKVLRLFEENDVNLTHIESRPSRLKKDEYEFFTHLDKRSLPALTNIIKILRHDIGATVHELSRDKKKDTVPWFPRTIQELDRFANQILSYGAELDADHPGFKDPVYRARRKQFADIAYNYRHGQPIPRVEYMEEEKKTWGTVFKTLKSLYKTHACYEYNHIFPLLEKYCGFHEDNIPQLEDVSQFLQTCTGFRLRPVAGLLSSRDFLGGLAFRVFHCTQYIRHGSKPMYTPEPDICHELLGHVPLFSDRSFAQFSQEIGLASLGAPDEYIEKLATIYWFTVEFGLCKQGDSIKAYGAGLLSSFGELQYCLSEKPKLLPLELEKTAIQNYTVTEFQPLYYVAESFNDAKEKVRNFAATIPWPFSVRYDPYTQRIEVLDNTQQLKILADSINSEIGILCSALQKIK
Assay: Cell Based Phenylalanine Flux Assay
Settings: A375 cells expressing R408W PAH; 24 hrs with compound, then 20 μM sepiapterin and 800 μM 13C9,15N-Phenylalanine for 4 hours; 13C-Tyrosine by LC-MS; average where tested multiple times
Procedure: Cells expressing R408W PAH were made by transducing A375 cells with lentivirus encoding human PAH with the R408W mutation in pLVX-Puro, then selecting with puromycin until stable cell lines were generated. A375 R408W cells were seeded into 96 well plates in DMEM+10% FBS at a density of 40,000 cells/well one hour prior to compound addition. Compounds were resuspended in DMSO, and 2-fold serial dilutions were performed to generate a 10-point dose curve. Compounds were added to plated cells in a total volume of 100 μl, and a final DMSO concentration of 0.5%. Each compound was tested in duplicate. Following compound addition, cells were placed in a 5% CO2, 37° C. tissue culture incubator for 24 hrs. After the incubation period, 20 μM sepiapterin and 800 μM 13C9,15N-Phenylalanine were added. After 4 hours, cell media was removed. An aliquot of 10 μl of cell media was combined with 200 μl of extraction buffer (80% acetonitrile/20% H2O) for each well. Determination of ^13C-Tyrosine concentration was assessed by liquid chromatography mass spectrometry.
Specific compounds disclosed herein were tested in the foregoing assay and they were determined to have an AC50 according to the following scores: (A) less than or equal to 0.500 μM, (B) greater than 0.500 and less than […], (C) greater than or equal to 1.000 and less than 5.000 μM, (D) greater than or equal to 5.000 μM, (E) no fit, and (NT) not tested, as shown below. Where a compound was tested multiple times, the average value of the tests is reported.

AC50 [µM]	SMILES
≥ 5	O=C(c1cnn2cc(CN3CCC(F)(F)C3)ccc12)N1CCc2[nH]cnc2C1c1nc2cc(F)ccc2o1 (stereo not shown)
≥ 5	Cc1nc(N2CCC(F)CC2)oc1C(=O)N1CCc2[nH]cnc2C1c1nc2cc(F)ccc2o1 (stereo not shown) [listing 1 of 2 here]
≥ 5	O=C(c1cnn2cc(CCN3CC(F)C3)ccc12)N1CCc2[nH]cnc2C1c1nc2cc(F)ccc2o1 (stereo not shown) [listing 1 of 2 here]
≥ 5	O=C(c1cnn2cc(CCN3CCOCC3)ccc12)N1CCc2[nH]cnc2C1c1nc2cc(F)ccc2o1 (stereo not shown) [listing 1 of 2 here]
≥ 5	COCCOc1ccc2c(C(=O)N3CCc4[nH]cnc4C3c3nc4cc(F)ccc4o3)cnn2c1 (stereo not shown) [listing 1 of 2 here]
≥ 5	COCCCc1ccc2c(C(=O)N3CCc4[nH]cnc4C3c3nc4cc(F)ccc4o3)cnn2c1 (stereo not shown) [listing 1 of 2 here]
≥ 5	CN(C)CCCOc1ccc2c(C(=O)N3CCc4[nH]cnc4C3c3nc4cc(F)ccc4o3)cnn2c1 (stereo not shown) [listing 1 of 2 here]
≥ 5	Cc1ccc2nc(C3c4nc[nH]c4CCN3C(=O)c3cnn4cc(CCN(C)C)ccc34)oc2c1 (stereo not shown) [listing 1 of 2 here]
≥ 5	COC(=O)Nc1ccc2c(C(=O)N3CCc4[nH]cnc4C3c3nc4cc(F)ccc4o3)cnn2c1 (stereo not shown) [listing 1 of 2 here]
≥ 5	O=C1CCCN1CCOc1ccc2c(C(=O)N3CCc4[nH]cnc4C3c3nc4cc(F)ccc4o3)cnn2c1 (stereo not shown)
≥ 5	O=C1CN(Cc2ccc3c(C(=O)N4CCc5[nH]cnc5C4c4nc5cc(F)ccc5o4)cnn3c2)CCN1 (stereo not shown)
1 to 5	Cc1nc(N2CCC(F)CC2)oc1C(=O)N1CCc2[nH]cnc2C1c1nc2cc(F)ccc2o1 (stereo not shown) [listing 2 of 2 here]
1 to 5	O=C(c1cnn2cc(CCN3CC(F)C3)ccc12)N1CCc2[nH]cnc2C1c1nc2cc(F)ccc2o1 (stereo not shown) [listing 2 of 2 here]
1 to 5	O=C(c1cnn2cc(CCN3CCOCC3)ccc12)N1CCc2[nH]cnc2C1c1nc2cc(F)ccc2o1 (stereo not shown) [listing 2 of 2 here]
1 to 5	COCCOc1ccc2c(C(=O)N3CCc4[nH]cnc4C3c3nc4cc(F)ccc4o3)cnn2c1 (stereo not shown) [listing 2 of 2 here]
1 to 5	COCCCc1ccc2c(C(=O)N3CCc4[nH]cnc4C3c3nc4cc(F)ccc4o3)cnn2c1 (stereo not shown) [listing 2 of 2 here]
1 to 5	O=C(c1cnn2cc(CN3CC(F)C3)ccc12)N1CCc2[nH]cnc2C1c1nc2cc(F)ccc2o1 (stereo not shown)
1 to 5	CN(C)CCCOc1ccc2c(C(=O)N3CCc4[nH]cnc4C3c3nc4cc(F)ccc4o3)cnn2c1 (stereo not shown) [listing 2 of 2 here]
1 to 5	Cc1ccc2nc(C3c4nc[nH]c4CCN3C(=O)c3cnn4cc(CCN(C)C)ccc34)oc2c1 (stereo not shown) [listing 2 of 2 here]
1 to 5	COC(=O)Nc1ccc2c(C(=O)N3CCc4[nH]cnc4C3c3nc4cc(F)ccc4o3)cnn2c1 (stereo not shown) [listing 2 of 2 here]

The remaining lines, values behind:

SMILES	AC50 [µM]
Cc1ccc2nc(C3c4nc[nH]c4CCN3C(=O)c3ocnc3C#N)oc2c1 (stereo not shown) [listing 1 of 2 here]	≥ 5
COCc1ncc(C(=O)N2CCc3[nH]cnc3C2c2nc3cc(F)ccc3o2)o1 (stereo not shown) [listing 1 of 2 here]	≥ 5
CN1CCN(c2nnc(C(=O)N3CCc4[nH]cnc4C3c3nc4cc(F)ccc4o3)o2)CC1 (stereo not shown) [listing 1 of 2 here]	≥ 5
Cc1ccc2nc(C3c4nc[nH]c4CCN3C(=O)c3cncs3)oc2c1 (stereo not shown) [listing 1 of 2 here]	≥ 5
Cc1nc(CN(C)C)oc1C(=O)N1CCc2[nH]cnc2C1c1nc2cc(F)ccc2o1 (stereo not shown) [listing 1 of 2 here]	≥ 5
O=C(N1CCc2[nH]cnc2C1c1nc2cc(F)ccc2o1)C(F)(F)C1(O)CCC1 (stereo not shown)	1 to 5
CN(C)c1nnc(C(=O)N2CCc3[nH]cnc3C2c2nc3cc(F)ccc3o2)o1 (stereo not shown)	1 to 5
N#Cc1ncoc1C(=O)N1CCc2[nH]cnc2C1c1nc2cc(F)ccc2o1 (stereo not shown)	≥ 5
N#Cc1nc(N2CCC(F)CC2)oc1C(=O)N1CCc2[nH]cnc2C1c1nc2cc(F)ccc2o1 (stereo not shown)	≥ 5
Cc1ccc2nc(C3c4nc[nH]c4CCN3C(=O)c3ocnc3C#N)oc2c1 (stereo not shown) [listing 2 of 2 here]	1 to 5
COCc1ncc(C(=O)N2CCc3[nH]cnc3C2c2nc3cc(F)ccc3o2)s1 (stereo not shown)	1 to 5
COCc1ncc(C(=O)N2CCc3[nH]cnc3C2c2nc3cc(F)ccc3o2)o1 (stereo not shown) [listing 2 of 2 here]	1 to 5
CN1CCN(c2nnc(C(=O)N3CCc4[nH]cnc4C3c3nc4cc(F)ccc4o3)o2)CC1 (stereo not shown) [listing 2 of 2 here]	1 to 5
O=C(c1cncs1)N1CCc2[nH]cnc2C1c1nc2ccc(Br)cc2o1 (stereo not shown)	≥ 5
Cn1cc(-c2ncc(C(=O)N3CCc4[nH]cnc4C3c3nc4ccc(Br)cc4o3)s2)cn1 (stereo not shown)	1 to 5
Cc1ccc2nc(C3c4nc[nH]c4CCN3C(=O)c3cncs3)oc2c1 (stereo not shown) [listing 2 of 2 here]	1 to 5
Cc1nc(CN(C)C)oc1C(=O)N1CCc2[nH]cnc2C1c1nc2cc(F)ccc2o1 (stereo not shown) [listing 2 of 2 here]	1 to 5
